Data as given in PMC9929129, “Towards Translation of PqsR Inverse Agonists: From In Vitro Efficacy Optimization to In Vivo Proof‐of‐Principle” (Advanced Science, 2023).

Experiments:
[1] = target: T1, HTR2B Human 5-Hydroxytryptamine GPCR (Homo sapiens, UniProt P41595); experiment: HTR2B GPCR calcium assay, 86-0030P-2091AN; format: cell-based
T1 construct: 86-0030P-2091AN
Source text: (§1) 1.4.2 Further functional off-target assays (Eurofins)
(§2) Table S8. Compound 24 was further tested in the following functional assays at Eurofins.
(§3) ASSAY NAME ESTIMATED IC50 [µM] […]
(§4) FLIPR Assay expressed in HEK293 cells
(§5) GABAA α5/β3/γ2 ionotropic receptor (human GABRA5, GABRB3, >30
(§6) and GABRG2 genes, expressed in HEK293 cells

[2] = target: T2, BK (KCa1.1/β1) calcium-activated potassium channel (Homo sapiens, UniProt Q12791); experiment: Ion channel profiling at Charles River: BK; format: cell-based; conditions: expressed in CHO cells; read-out: ESTIMATED IC50
T2 construct: host or cells: CHO cells
Method: (§7) 1.4.3 Ion Channel Profiling at Charles River
(§8) Table S9. Compound 24 was tested against the following ion channels at Charles River Laboratories. […]
BK (KCa1.1/β1) calcium-activated potassium channel (human >30
KCNMA1 and KCNMB1 genes) expressed in CHO cells
(§9) FASTPatch Assay IK (KCa3.1) calcium-activated potassium channel (human KCNN4 >30 gene) expressed in CHO cells […]
as §4
(§10) GABAA α5/β3/γ2 ionotropic receptor (human GABRA5, GABRB3, >30 and GABRG2 genes, expressed in HEK293 cells

PA14 biofilm = experiment: Biofilm-formation assay (Calgary biofilm device); format: cell-based, Pseudomonas aeruginosa; conditions: 24 present from the beginning or added 8 h after onset of biofilm growth; CFU after 48 h
Method: MA, USA) instrument parameters: Spray voltage 3500 V, vaporizer temperature 370 °C, sheath gas pressure 35 psi, aux gas pressure 30 psi, capillary temperature 270 °C, collision pressure 1.5 mTorr, positive ionization mode. For AQ analyte reaction monitoring parameters please see Table S1.
Table S1. LC-ESI-MS/MS reaction monitoring parameters of AQ analytes in positive ionization mode. precursor product ion collision tube lens retention ion m/z m/z energy (V) offset (V) time (min)
1.2.4 Biofilm-formation assay
Biofilm formation was determined using a MBEC Assay® Biofilm Inoculator with 96-well base (Innvotech, Edmonton, CA). An overnight culture of PA14 was centrifuged (10 min, 5000 x g). The supernatant including extracellular polymers was removed and the pellet washed with 10 mL of LB medium. Centrifugation was repeated, the supernatant discarded, and the pellet resuspended in 5 mL of LB. OD was adjusted to 0.2. The bacteria were further diluted in LB medium, followed by addition of the target compound or DMSO control to give OD 0.1 and 1% DMSO. 150 µL were added to each well of the 96-well plate. The outer wells were used as blanks containing 150 µL of 1% DMSO in LB. Six replicates per sample were distributed evenly across the plate, with every row containing one replicate of each sample. […]
Statistical outliers were determined using the Nalimov test, applying a 95% cut-off. […]

[3] = target: T3, GABAA α5/β3/γ2 ionotropic receptor (Homo sapiens, UniProt P18507+P28472+P31644); experiment: Ion channel profiling at Charles River: GABAA; format: cell-based
T3 construct: host or cells: HEK293 cells
Method: as §7, §8, §9
ScreenPatch Assay Kv1.3 potassium channel (human KCNA3 gene) expressed in CHO […]
as §4, §10

[4] = Metabolic stability in mouse hepatocytes; format: in vitro ADME; conditions: read-out: Mouse hepatocytes t½
[5] = target: T4, Nav1.5 human sodium ion channel (Homo sapiens, UniProt Q14524); experiment: Nav1.5 automated patch clamp CiPA assay (Eurofins); format: cell-based
T4 construct: Eurofins CYL8004QP2DR
Method: as §1, §2, §3
Nav1.5 human sodium ion channel cell based automated patch clamp >30 µM
CiPA assay (CYL8004QP2DR) […]
as §4, §5, §6

PDE3A (h) = target: T5, PDE3A (h) (Homo sapiens, UniProt Q14432); experiment: Cerep panel functional assay; format: biochemical
T5 construct: Eurofins Pharma Discovery (CRO that ran the assay) SafetyScreen44 Panel (Cerep, ITEM P270)
T5 sequence (Q14432 whole entry): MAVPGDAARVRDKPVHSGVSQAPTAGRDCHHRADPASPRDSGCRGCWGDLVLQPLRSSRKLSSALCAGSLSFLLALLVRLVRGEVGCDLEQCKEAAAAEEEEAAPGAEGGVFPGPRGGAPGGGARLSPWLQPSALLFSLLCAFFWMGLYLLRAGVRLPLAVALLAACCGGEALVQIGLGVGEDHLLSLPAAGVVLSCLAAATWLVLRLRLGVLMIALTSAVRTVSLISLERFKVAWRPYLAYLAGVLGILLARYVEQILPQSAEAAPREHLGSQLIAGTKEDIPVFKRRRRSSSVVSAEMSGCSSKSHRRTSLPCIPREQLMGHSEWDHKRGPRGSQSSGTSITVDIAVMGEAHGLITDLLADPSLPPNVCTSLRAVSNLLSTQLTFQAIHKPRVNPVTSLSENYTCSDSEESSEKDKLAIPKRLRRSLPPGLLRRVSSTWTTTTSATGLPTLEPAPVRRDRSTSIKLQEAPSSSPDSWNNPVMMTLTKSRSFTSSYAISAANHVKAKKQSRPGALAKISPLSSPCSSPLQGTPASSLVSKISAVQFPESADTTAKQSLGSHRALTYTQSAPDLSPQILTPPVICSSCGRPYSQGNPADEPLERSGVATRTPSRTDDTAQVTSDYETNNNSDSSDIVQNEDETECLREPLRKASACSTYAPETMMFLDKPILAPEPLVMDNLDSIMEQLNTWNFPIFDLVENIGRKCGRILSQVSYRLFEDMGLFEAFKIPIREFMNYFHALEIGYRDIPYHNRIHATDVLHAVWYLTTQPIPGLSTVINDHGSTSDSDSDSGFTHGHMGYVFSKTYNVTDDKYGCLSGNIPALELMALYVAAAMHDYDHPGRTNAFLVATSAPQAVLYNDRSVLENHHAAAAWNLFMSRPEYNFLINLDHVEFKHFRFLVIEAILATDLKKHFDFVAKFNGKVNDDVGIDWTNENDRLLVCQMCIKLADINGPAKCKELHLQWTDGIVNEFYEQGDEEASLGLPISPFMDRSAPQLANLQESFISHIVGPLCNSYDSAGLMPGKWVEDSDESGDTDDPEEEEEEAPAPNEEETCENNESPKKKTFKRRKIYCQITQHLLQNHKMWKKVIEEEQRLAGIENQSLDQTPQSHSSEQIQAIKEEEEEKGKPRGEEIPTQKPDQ
Method: (§11) 1.4 Safety Pharmacology of Compound 24
(§12) 1.4.1 Cerep panel (Eurofins)
(§13) Compound 24 was further profiled for its off-target interactions against a panel of 44 targets. The
(§14) screening was done by Eurofins Pharma Discovery within the SafetyScreen44 Panel (Cerep, ITEM
(§15) P270). In all assays binding/functional inhibition was determined at 10 µM. […]

acetylcholinesterase (h) = target: T6, acetylcholinesterase (h) (Homo sapiens, UniProt P22303); experiment: Cerep panel functional assay; format: biochemical
T6 construct: Eurofins Pharma Discovery (CRO that ran the assay) SafetyScreen44 Panel (Cerep, ITEM P270)
T6 sequence (P22303 32-614): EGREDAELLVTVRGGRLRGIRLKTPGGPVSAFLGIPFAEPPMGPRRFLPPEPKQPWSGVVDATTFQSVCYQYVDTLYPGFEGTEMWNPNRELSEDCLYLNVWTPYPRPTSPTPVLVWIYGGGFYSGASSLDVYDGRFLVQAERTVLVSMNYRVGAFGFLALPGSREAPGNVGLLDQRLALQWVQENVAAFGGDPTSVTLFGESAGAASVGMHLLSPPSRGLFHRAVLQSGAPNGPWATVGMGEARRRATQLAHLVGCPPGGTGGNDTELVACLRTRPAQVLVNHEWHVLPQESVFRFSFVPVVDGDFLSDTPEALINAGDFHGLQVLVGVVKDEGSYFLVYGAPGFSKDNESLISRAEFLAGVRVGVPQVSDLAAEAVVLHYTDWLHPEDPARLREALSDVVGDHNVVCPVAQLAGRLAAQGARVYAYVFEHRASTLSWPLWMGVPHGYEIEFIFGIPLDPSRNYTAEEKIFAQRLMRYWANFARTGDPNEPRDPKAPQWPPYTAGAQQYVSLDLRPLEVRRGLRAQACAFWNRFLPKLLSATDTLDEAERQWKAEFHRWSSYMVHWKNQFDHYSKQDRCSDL
Method: as §11, §12, §13, §14, §15

Lck kinase (h) = target: T7, Lck kinase (h) (Homo sapiens, UniProt P06239); experiment: Cerep panel functional assay; format: biochemical
T7 construct: Eurofins Pharma Discovery (CRO that ran the assay) SafetyScreen44 Panel (Cerep, ITEM P270)
T7 sequence (P06239 whole entry): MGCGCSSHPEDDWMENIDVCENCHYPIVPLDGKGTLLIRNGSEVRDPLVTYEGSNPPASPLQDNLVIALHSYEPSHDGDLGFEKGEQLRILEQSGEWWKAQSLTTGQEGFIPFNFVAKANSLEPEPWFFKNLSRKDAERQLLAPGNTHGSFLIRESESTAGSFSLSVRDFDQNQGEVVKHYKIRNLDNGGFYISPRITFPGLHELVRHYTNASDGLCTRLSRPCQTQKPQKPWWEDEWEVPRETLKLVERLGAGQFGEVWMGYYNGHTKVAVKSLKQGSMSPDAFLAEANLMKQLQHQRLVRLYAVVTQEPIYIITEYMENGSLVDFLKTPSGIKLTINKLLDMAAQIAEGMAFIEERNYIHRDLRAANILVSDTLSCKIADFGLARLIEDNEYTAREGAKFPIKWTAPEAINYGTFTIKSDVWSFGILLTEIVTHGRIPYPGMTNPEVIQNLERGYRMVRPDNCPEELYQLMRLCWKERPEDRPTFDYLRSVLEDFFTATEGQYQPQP
Method: as §11, §12, §13, §14, §15

COX-1 (h) = target: T8, COX-1 (h) (Homo sapiens, UniProt P23219); experiment: Cerep panel functional assay; format: biochemical
T8 construct: Eurofins Pharma Discovery (CRO that ran the assay) SafetyScreen44 Panel (Cerep, ITEM P270)
T8 sequence (P23219 24-599): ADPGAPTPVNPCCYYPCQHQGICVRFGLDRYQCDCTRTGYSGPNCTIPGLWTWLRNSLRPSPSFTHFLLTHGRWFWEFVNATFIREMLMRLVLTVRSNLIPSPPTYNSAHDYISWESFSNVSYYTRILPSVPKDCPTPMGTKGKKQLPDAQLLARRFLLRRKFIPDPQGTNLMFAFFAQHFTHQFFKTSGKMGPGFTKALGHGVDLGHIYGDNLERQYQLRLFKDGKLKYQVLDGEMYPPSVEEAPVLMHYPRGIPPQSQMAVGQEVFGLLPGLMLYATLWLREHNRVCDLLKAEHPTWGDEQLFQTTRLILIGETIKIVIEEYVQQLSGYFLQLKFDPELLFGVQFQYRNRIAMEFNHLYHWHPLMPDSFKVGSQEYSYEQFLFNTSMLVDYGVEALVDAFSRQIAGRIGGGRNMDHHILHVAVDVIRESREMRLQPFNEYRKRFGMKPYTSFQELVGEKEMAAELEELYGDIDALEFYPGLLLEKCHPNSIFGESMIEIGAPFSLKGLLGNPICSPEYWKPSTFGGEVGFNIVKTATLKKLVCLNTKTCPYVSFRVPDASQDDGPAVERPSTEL
Method: as §11, §12, §13, §14, §15

COX-2 (h) = target: T9, COX-2 (h) (Homo sapiens, UniProt P35354); experiment: Cerep panel functional assay; format: biochemical
T9 construct: Eurofins Pharma Discovery (CRO that ran the assay) SafetyScreen44 Panel (Cerep, ITEM P270)
T9 sequence (P35354 18-604): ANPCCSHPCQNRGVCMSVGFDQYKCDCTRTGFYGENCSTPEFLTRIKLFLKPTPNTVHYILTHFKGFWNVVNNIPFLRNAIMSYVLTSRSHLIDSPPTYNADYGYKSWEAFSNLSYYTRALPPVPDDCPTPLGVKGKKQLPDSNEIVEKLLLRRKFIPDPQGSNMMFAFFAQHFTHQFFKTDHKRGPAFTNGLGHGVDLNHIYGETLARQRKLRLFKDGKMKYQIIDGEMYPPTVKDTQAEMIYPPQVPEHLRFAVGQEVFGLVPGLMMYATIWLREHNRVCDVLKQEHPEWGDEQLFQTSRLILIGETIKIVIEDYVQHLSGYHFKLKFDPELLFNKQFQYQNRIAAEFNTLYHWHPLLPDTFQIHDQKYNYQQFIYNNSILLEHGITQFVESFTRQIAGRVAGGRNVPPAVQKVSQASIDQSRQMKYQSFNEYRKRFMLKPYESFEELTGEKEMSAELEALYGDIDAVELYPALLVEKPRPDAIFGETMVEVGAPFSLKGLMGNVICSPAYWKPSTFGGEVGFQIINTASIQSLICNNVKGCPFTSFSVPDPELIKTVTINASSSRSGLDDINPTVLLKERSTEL
Method: as §11, §12, §13, §14, §15

PDE4D2 (h) = target: T10, PDE4D2 (h) (Homo sapiens, UniProt Q08499); experiment: Cerep panel functional assay; format: biochemical
T10 construct: Eurofins Pharma Discovery (CRO that ran the assay) SafetyScreen44 Panel (Cerep, ITEM P270)
T10 sequence (Q08499 303-809 limits assumed): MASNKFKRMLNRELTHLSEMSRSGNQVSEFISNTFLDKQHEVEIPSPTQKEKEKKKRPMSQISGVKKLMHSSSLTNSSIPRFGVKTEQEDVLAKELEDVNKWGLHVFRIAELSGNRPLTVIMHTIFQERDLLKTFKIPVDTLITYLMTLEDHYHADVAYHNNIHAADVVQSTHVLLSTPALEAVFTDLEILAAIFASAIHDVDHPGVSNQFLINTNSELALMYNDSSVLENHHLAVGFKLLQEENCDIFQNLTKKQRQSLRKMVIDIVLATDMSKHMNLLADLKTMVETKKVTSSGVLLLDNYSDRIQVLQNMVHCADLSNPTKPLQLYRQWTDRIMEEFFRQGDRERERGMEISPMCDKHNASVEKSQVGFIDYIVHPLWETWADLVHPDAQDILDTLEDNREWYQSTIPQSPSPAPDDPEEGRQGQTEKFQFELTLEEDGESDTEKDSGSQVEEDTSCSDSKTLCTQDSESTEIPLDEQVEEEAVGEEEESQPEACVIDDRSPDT
Method: as §11, §12, §13, §14, §15

[6] = target: T11, IK (KCa3.1) calcium-activated potassium channel (Homo sapiens, UniProt O15554); experiment: Ion channel profiling at Charles River: IK; format: cell-based; conditions: expressed in CHO cells; read-out: ESTIMATED IC50
T11 construct: host or cells: CHO cells
Method: as §7, §8, §9, §4, §10

T1 sequence (P41595 whole entry): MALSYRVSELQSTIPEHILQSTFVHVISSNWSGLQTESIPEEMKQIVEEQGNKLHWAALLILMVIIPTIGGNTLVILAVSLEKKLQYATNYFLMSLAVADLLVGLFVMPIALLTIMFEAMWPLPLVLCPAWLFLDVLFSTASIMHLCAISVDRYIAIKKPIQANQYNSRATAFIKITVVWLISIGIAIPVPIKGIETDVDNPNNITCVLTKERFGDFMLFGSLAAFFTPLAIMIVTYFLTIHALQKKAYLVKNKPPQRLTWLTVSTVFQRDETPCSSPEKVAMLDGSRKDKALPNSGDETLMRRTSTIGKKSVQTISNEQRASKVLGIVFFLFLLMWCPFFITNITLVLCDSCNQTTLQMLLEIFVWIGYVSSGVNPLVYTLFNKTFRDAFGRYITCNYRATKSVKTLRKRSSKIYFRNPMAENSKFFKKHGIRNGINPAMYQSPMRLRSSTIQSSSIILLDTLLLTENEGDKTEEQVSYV

For CC(C)Oc1ccc(-c2ncc(CNc3ccnc(C(F)(F)F)c3)cn2)cc1Cl [Compound 24], the IC50 [1] was > 10 µM, the IC50 [2] was > 30 µM and the “PA14 biofilm formation (CFU) compared to DMSO control” value (PA14 biofilm) was “significantly attenuates”. The IC50 [3] was > 30 µM, the half-life [4] was 9 min and the IC50 [5] was > 30 µM. For the same molecule, the inhibition at 10 µM (PDE3A (h)) was 0.3%, the inhibition at 10 µM (acetylcholinesterase (h)) was -1.9% and the inhibition at 10 µM (Lck kinase (h)) was -6.8%. The inhibition at 10 µM (COX-1 (h)) was 8.8%, the inhibition at 10 µM (COX-2 (h)) was 19.1% and the inhibition at 10 µM (PDE4D2 (h)) was 6.7%. For the same molecule, the IC50 [6] was > 30 µM.
